Experimental data as given in patent US20140155445A1, “Compounds and Methods for Treating Cancer and Diseases of the Central Nervous System” (Osta Biotechnologies Inc., priority 2007, published 2014).
Counter-ions that a name gives are not always drawn. Like-named read-outs stand apart in the source and are kept apart here.

What was measured:
HO-1 (rat spleen) = target: T1, HO-1 (rat spleen) (Rattus norvegicus, UniProt P06762); test: HO enzymatic activity in rat spleen microsomal fraction (CO formed from methemalbumin, gas chromatography); assay type: biochemical
T1 construct: Spleen microsomes were used as a source of HO-1; from tissue; host or cells: spleen microsomal fraction of adult male Sprague-Dawley rats
T1 sequence (P06762 1-289): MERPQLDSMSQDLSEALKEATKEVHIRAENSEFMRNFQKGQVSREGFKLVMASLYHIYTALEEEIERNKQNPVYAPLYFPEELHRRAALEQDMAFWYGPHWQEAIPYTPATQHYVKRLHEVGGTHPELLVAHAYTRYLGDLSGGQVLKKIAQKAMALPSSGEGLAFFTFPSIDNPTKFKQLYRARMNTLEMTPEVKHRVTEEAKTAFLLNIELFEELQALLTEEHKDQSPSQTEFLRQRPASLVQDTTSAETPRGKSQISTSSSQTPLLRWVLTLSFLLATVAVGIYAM
Experimental: (§1) Incubations for HO activity analysis were done under conditions for which the rate of CO formation (pmol CO×min^−1×mg protein^−1) was linear with respect to time and microsomal protein concentration. Briefly, reaction mixtures (150 μL) consisting of 100 mM phosphate buffer (pH 7.4), 50 μM methemalbumin, and 1 mg/mL protein were pre-incubated with the inhibitors at final concentrations ranging from 0.1-100 μM for 10 minutes at 37° C. Reactions were initiated by adding NADPH at a final concentration of 1 mM and incubations were performed for an additional 15 minutes at 37° C.
(§2) Incubations for HO activity analysis were done under conditions for which the rate of CO formation (pmol CO/mg protein/minute) was linear with respect to time and microsomal protein concentration. Briefly, reaction mixtures (150 μL) consisting of 100 mM phosphate buffer (pH 7.4), 50 μM methemalbumin and 1 mg/mL protein were pre-incubated with the vehicle (ethanol or water in which the inhibitors were dissolved), or inhibitors at final concentrations ranging from 0.1-1000 μM for 10 minutes at 37° C. Reactions were initiated by adding β-NADPH at a final concentration of 1 mM and incubations were carried out for an additional 15 minutes at 37° C. Reactions were stopped by instantly freezing the reaction mixture on pulverized dry ice and CO formation was measured by gas chromatography using a TA 3000R Process Gas Analyzer (Trace Analytical/Ametek, Newark, Del., USA).
(§3) The values on the abscissa represent the decimal logarithm of the inhibitor's concentration (in μM), whereas the values of the activity on the ordinate are expressed as a percentage of the control experiments without inhibitor.
(§4) The IC50 values for the replicate experiments were employed to generate the reported standard deviation value.

HO-2 (rat brain) = target: T2, HO-2 (rat brain) (Rattus norvegicus, UniProt P23711); test: HO enzymatic activity in rat brain microsomal fraction (CO formed from methemalbumin, gas chromatography); assay type: biochemical
T2 construct: brain microsomes were used as a source of HO-2; from tissue; host or cells: brain microsomal fraction of adult male Sprague-Dawley rats
T2 sequence (P23711 1-315): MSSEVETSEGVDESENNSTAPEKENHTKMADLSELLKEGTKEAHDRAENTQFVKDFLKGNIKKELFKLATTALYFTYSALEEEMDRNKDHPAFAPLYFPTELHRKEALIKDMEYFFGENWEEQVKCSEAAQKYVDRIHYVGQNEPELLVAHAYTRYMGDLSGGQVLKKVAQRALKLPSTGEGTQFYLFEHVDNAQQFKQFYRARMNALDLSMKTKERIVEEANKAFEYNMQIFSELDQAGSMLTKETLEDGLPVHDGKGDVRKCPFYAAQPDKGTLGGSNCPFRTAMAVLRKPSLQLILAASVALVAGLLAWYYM
Experimental: as §1, §2, §3, §4

[1] = rat spleen microsomes, average ± standard deviation of replicate experiments, read-out: IC50 HO-1 (rat spleen)/μM
[2] = rat brain microsomes, average ± standard deviation of replicate experiments, read-out: IC50 HO-2 (rat brain)/μM
[3] = rat spleen microsomes, average ± standard deviation of replicate experiments
[4] = rat brain microsomes, average ± standard deviation of replicate experiments

Structure (SMILES) | IC50 (HO-1 (rat spleen); [1]) [µM] | IC50 (HO-2 (rat brain); [2]) [µM] | further results
Brc1ccc(CNCc2cccnc2)cc1 | > 100 | > 100 | –
c1ccc(CNCCCn2ccnc2)cc1 | > 100 | > 100 | –
c1ccc2[nH]c(NC3CCNCC3)nc2c1 | > 100 | > 100 | –
CCOC(=O)N1CCC(Nc2nc3ccccc3[nH]2)CC1 | > 100 | > 100 | –
CCOC(=O)N1CCC(Nc2nc3ccccc3n2Cc2ccc(F)cc2)CC1 | > 100 | > 100 | –
c1cn(C2C3CC4CC(C3)CC2C4)cn1 (stereo not shown) | > 100 | > 100 | –
O=C(Cn1ccnc1)c1cccs1 | > 100 | > 100 | –
COc1ccc(CCN2CCC(Nc3nc4ccccc4[nH]3)CC2)cc1 | – | – | IC50 (HO-1 (rat spleen)): > 100 µM; IC50 (HO-2 (rat brain)): > 100 µM
COc1ccc(CCN2CCC(Nc3nc4ccccc4n3Cc3ccccc3)CC2)cc1 | > 100 | 60 ± 18 | –
COc1ccc(CCN2CCC(Nc3nc4cc(C)c(C)cc4n3Cc3ccc(F)cc3)CC2)cc1 | > 100 | 91 ± 45 | –
NCC(=O)c1ccc(Br)cc1 | – | – | IC50 (HO-1 (rat spleen)): > 100 µM; IC50 (HO-2 (rat brain)): > 100 µM
COc1ccc(CCN2CCC(Nc3nc4cc(Cl)c(Cl)cc4n3Cc3ccc(F)cc3)CC2)cc1 | > 100 | > 100 | –
O=C(/C(=N/O)n1ccnc1)c1ccc(Cl)cc1 | 103 ± 2 | 103 ± 41 | –
Clc1ccc(/C(Cn2ccnc2)=N\Nc2ccccc2)cc1 | > 100 | > 100 | –
[N-]=[N+]=NCC(=O)c1ccc(Br)cc1 | > 100 | > 100 | –
O=C(Cn1cnnc1)c1ccc(Cl)cc1 | > 100 | > 100 | –
Cc1nccn1CC(=O)CCc1ccc(Cl)cc1.Cl | – | – | IC50 HO-1 (rat spleen)/μM (HO-1 (rat spleen); [3]): INACTIVE; IC50 HO-2 (rat brain)/μM (HO-2 (rat brain); [4]): INACTIVE
Cc1nccn1CC1(CCc2ccc(Cl)cc2)OCCO1.Cl | – | – | IC50 HO-1 (rat spleen)/μM (HO-1 (rat spleen); [3]): INACTIVE; IC50 HO-2 (rat brain)/μM (HO-2 (rat brain); [4]): INACTIVE
Fc1ccc(-c2ccno2)cc1 | > 100 | > 100 | –
O=C(Cn1cncn1)c1ccc2c(c1)OCCO2 | 18 ± 4 | > 100 | –
c1ccc2[nH]c(CN3CCCC3)nc2c1 | > 100 | > 100 | –
OC(CCc1ccccc1)Cn1cnc(-c2ccccc2)c1-c1ccccc1 (racemic) [(±)-1-(4,5-diphenyl-imidazol-1-yl)-4-phenyl-butan-2-ol] | > 100 | > 100 | –
OC(CCc1ccc(Br)cc1)Cn1ccnc1 (racemic) [(±)-4-(4-bromophenyl)-1-(1H-imidazol-1-yl)butan-2-ol hydrochloride] | 0.14 ± 0.06 | – | –
Clc1ccc(CC[C@@]2(Cn3ccnc3)OCC(COc3ccc(-c4ccccc4)cc3)O2)cc1 (stereo in doubt) [(2R,4S)-1-{4-(biphenyl-4-yloxymethyl)-2-[2-(4-chloro-phenyl)-ethyl]-[1,3]dioxolan-2-ylmethyl}-1H-imidazole hydrochloride] | 2 ± 1 | – | –
O=C(Cn1ccnc1)c1ccc(Cl)c(Cl)c1 [1-(3,4-Dichloro-phenyl)-2-imidazol-1-yl-ethanone] | 1.24 ± 0.07 | – | –
O=C(Cn1ccnc1)C12CC3CC(CC(C3)C1)C2 [1-(adamantan-1-yl)-2-imidazol-1-yl-ethanone hydrochloride] | 7 ± 1 | – | –

Structure (SMILES) | IC50 (HO-1 (rat spleen); [1]) [µM] | IC50 (HO-2 (rat brain); [2]) [µM] | further results
Brc1ccc(C2(Cn3cncn3)OCCO2)cc1 [1-[2-(4-bromo-phenyl)-[1,3]dioxolan-2-ylmethyl]-1H-[1,2,4]triazole] | – | > 100 | –
COc1ccc(C(=O)Cn2ccnc2)cc1 [2-Imidazol-1-yl-1-(4-methoxy-phenyl)-ethanone hydrochloride] | 39 ± 13 | – | –
CC(C)(C(=O)c1ccccc1)n1ccnc1 [2-Imidazol-1-yl-2-methyl-1-phenyl-propan-1-one] | – | > 100 | –
Fc1ccc(CCC2(Cn3ccnc3)OCCO2)cc1 [2-[2-(4-fluorophenyl)ethyl]-2-[(1H-imidazol-1-yl)methyl]-1,3-dioxolane hydrochloride] | – | > 100 | –
Ic1ccc(CCC2(Cn3ccnc3)OCCO2)cc1 [2-[2-(4-iodophenyl)ethyl]-2-[(1H-imidazol-1-yl)methyl]-1,3-dioxolane hydrochloride] | – | > 100 | –
O=C(Cn1ccnc1)c1cccc2ccccc12 [2-imidazol-1-yl-1-naphthalen-1-yl-ethanone hydrochloride] | 2.2 ± 0.1 | – | –
COC(=O)c1cncn1CC(=O)CCc1ccccc1 [3-(2-Oxo-4-phenyl-butyl)-3H-imidazole-4-carboxylic acid methyl ester] | 69 ± 19 | – | –
O=C(CCc1ccc(Br)cc1)Cn1ccnc1 [4-(4-bromophenyl)-1-(1H-imidazol-1-yl)butan-2-one hydrochloride] | 1.7 ± 0.7 | – | –
O=C(CCc1ccc(Br)cc1)Cn1cncn1 [4-(4-bromophenyl)-1-[1,2,4]triazol-1-yl-butan-2-one hydrochloride] | 0.39 ± 0.02 | – | –
CC(=O)CCc1ccc(Br)cc1 [4-(4-bromophenyl)butan-2-one] | > 100 | – | –
O=C(CCc1ccc(Cl)cc1)Cn1ccnc1 [4-(4-chlorophenyl)-1-(1H-imidazol-1-yl)butan-2-one hydrochloride] | 4.7 ± 0.5 | – | –
OC(CCc1ccc(F)cc1)Cn1ccnc1 (stereo not shown) [4-(4-fluorophenyl)-1-(1H-imidazol-1-yl)butan-2-ol hydrochloride] | 1.4 ± 1.1 | – | –
O=C(CCc1ccc(F)cc1)Cn1ccnc1 [4-(4-fluorophenyl)-1-(1H-imidazol-1-yl)butan-2-one hydrochloride] | 2.7 ± 0.9 | – | –
O=C(CCc1ccccc1)Cn1cnnn1 [4-Phenyl-1-tetrazol-1-yl-butan-2-one hydrochloride] | – | 30 ± 4 | –
O=C(CCc1ccccc1)Cn1ccnn1 [4-phenyl-1-(1H-[1,2,3]triazol-1-yl)butan-2-one] | – | > 100 | –
O=C(CCc1ccccc1)Cn1nccn1 [4-phenyl-1-[1,2,3]triazol-2-yl-butan-2-one] | – | > 100 | –
O=C(CCc1ccccc1)Cn1cccn1 [4-phenyl-1-pyrazol-1-yl-butan-2-one hydrochloride] | – | > 100 | –
O=C(/C=C/c1ccccc1)CCn1ccnc1 [5-(1H-Imidazol-1-yl)-1-phenyl-pent-1-en-3-one hydrochloride] | 22.6 ± 0.8 | – | –
Nc1ccccc1SC[C@H]1CO[C@@](CCc2ccc(Cl)cc2)(Cn2ccnc2)O1 [(2R,4R)-2-[2-(4-chlorophenyl)ethyl]-2-[(1H-imidazol-1-yl)methyl]-4-[{(2-aminophenyl)thio}meth-yl]-1,3-dioxolane dihydrochloride] | – | > 100 | –
Nc1cccc(SC[C@H]2CO[C@@](CCc3ccc(Cl)cc3)(Cn3ccnc3)O2)c1 [(2R,4R)-2-[2-(4-chlorophenyl)ethyl]-2-[(1H-imidazol-1-yl)methyl]-4-[{(3-aminophenyl)thio}meth-yl]-1,3-dioxolane dihydrochloride] | – | – | IC50 (HO-2 (rat brain)): > 100 µM
Nc1ccc(SC[C@H]2CO[C@@](CCc3ccc(Cl)cc3)(Cn3ccnc3)O2)cc1 [(2R,4R)-2-[2-(4-chlorophenyl)ethyl]-2-[(1H-imidazol-1-yl)methyl]-4-[{(4-aminophenyl)thio}meth-yl]-1,3-dioxolane dihydrochloride] | – | – | IC50 (HO-2 (rat brain)): > 100 µM
Nc1ccccc1SC[C@@H]1CO[C@](CCc2ccc(Cl)cc2)(Cn2ccnc2)O1 [(2S,4S)-2-[2-(4-chlorophenyl)ethyl]-2-[(1H-imidazol-1-yl)methyl]-4-[{(2-aminophenyl)thio}meth-yl]-1,3-dioxolane dihydrochloride] | 5 ± 0.3 | – | –
Nc1ccc(SC[C@@H]2CO[C@](CCc3ccc(Cl)cc3)(Cn3ccnc3)O2)cc1 [(2S,4S)-2-[2-(4-chlorophenyl)ethyl]-2-[(1H-imidazol-1-yl)methyl]-4-[{(4-aminophenyl)thio}meth-yl]-1,3-dioxolane dihydrochloride] | – | – | IC50 (HO-1 (rat spleen)): 5 ± 2 µM
COc1ccc(CCN2CCC(Nc3nc4ccccc4n3Cc3ccc(F)cc3)CC2)cc1 [Astemizole, reference compound] | – | 30 ± 5 | –
OC(Cn1cncn1)(Cn1cncn1)c1ccc(F)cc1F [Fluconazole, reference compound] | 80 ± 6 | – | –
